PMC11108826 (Synthetic and Systems Biotechnology, 2024)

Target: T1, ORF-L16 (Saccharopolyspora spinosa, UniProt Q9ALP2)
T1 sequence (Q9ALP2 1-278): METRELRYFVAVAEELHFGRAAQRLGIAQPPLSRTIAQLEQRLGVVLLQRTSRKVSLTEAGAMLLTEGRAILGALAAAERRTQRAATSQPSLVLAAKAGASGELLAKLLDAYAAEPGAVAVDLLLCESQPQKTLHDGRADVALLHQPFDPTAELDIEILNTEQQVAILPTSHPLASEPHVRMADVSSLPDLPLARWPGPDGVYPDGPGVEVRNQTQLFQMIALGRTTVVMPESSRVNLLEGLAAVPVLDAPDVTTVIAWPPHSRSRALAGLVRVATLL
Assay: isothermal titration calorimetry
Assay type: binding

CC[C@H]1CCC[C@H](O[C@H]2CC[C@H](N(C)C)[C@@H](C)O2)[C@@H](C)C(=O)C2=C[C@@H]3[C@@H](C=C[C@@H]4C[C@@H](O[C@@H]5O[C@@H](C)[C@H](OC)[C@@H](OC)[C@H]5OC)C[C@@H]34)[C@@H]2CC(=O)O1 [spinosyn A]
Kd: 2360 ± 40 nM
